Assay results: the Kinase Knowledgebase extract (Sharma et al. 2016)
pIC50: −log10 of the molar value.

Target: EGFR (UniProt P00533)
Sequence (P00533 whole entry, looked up): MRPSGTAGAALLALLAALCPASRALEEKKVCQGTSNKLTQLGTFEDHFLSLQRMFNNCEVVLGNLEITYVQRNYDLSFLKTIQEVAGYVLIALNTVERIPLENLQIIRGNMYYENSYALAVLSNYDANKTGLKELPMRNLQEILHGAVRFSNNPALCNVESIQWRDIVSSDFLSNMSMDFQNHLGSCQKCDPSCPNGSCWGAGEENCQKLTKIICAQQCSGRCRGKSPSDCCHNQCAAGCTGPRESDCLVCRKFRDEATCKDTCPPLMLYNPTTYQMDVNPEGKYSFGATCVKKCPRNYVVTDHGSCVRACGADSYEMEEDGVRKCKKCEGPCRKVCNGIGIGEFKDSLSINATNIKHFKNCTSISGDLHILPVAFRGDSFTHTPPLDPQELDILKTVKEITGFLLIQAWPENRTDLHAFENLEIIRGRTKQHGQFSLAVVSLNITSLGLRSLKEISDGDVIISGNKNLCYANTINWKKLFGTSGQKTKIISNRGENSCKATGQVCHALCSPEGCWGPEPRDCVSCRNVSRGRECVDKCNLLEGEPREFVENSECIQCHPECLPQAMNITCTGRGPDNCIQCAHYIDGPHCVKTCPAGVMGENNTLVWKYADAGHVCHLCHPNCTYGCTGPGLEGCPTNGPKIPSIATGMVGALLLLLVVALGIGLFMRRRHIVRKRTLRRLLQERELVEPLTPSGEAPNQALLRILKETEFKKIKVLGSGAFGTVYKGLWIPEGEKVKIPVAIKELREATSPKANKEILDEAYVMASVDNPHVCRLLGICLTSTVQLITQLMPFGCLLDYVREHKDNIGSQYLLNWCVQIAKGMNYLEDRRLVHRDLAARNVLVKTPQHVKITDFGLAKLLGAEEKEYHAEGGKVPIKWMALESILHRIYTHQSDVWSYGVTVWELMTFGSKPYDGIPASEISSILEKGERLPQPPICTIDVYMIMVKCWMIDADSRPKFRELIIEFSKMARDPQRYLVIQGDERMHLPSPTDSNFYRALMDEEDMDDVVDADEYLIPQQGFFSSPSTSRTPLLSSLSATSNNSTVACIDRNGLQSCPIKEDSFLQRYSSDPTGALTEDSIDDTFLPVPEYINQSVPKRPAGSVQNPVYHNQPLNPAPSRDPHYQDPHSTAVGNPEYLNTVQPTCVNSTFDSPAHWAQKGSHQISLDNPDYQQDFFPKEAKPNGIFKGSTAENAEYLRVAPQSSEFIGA

pIC50 | SMILES
> 7.30 | COc1cc2c(Nc3ccc(Cl)c(Cl)c3)ncnc2cc1OCC1CN(C(=O)c2ccc(Cl)nc2)CCO1 (centres undefined)
> 7.30 | COc1cc2c(Nc3cccc(F)c3F)ncnc2cc1O[C@@H]1CO[C@@H]2[C@H]1OC[C@H]2F
> 7.30 | COc1cc2c(Nc3cc(Cl)ccc3F)ncnc2cc1O[C@@H]1CO[C@@H]2[C@H]1OC[C@H]2F
> 7.30 | COc1cc2c(Nc3ccc(Cl)c(Cl)c3)ncnc2cc1OCCN1CCCCC1
> 7.30 | CC#CCN1CCOC(COc2cc3ncnc(Nc4ccc(Cl)c(Cl)c4)c3cc2OC)C1 (centres undefined)
> 7.30 | CCN1CCCC1c1nc(COc2cc3ncnc(Nc4ccc(Cl)c(Cl)c4)c3cc2OC)no1 (centres undefined)
> 7.30 | COc1cc2c(Nc3ccc(Cl)c(Cl)c3)ncnc2cc1OCC1CN(S(=O)(=O)Cc2ccccc2)CCO1 (centres undefined)
> 7.30 | COc1cc2c(Nc3ccc(Cl)c(Cl)c3)ncnc2cc1OCC1CN(c2ccncc2)CCO1 (centres undefined)
> 7.30 | COc1cc2c(Nc3ccc(Br)c(Cl)c3)ncnc2cc1O[C@H]1CO[C@H]2[C@@H]1OC[C@@H]2OC(F)F
> 7.30 | COc1cc2c(Nc3ccc(Cl)c(Cl)c3Cl)ncnc2cc1OCC1CN(C)CCO1 (centres undefined)
> 7.30 | COc1cc2c(Nc3ccc(N4CCN(C)CC4)cc3)ncnc2cc1O[C@H]1CO[C@@H]2[C@H]1OC[C@@H]2F
> 7.30 | COc1cc2c(Nc3cccc(Cl)c3)ncnc2cc1O[C@@H]1CO[C@@H]2[C@H]1OC[C@H]2F
> 7.30 | COc1cc2c(Nc3ccc(Cl)c(Cl)c3)ncnc2cc1OCC1CN(C)CC(C)(C)O1 (centres undefined)
> 7.30 | COc1cc2c(Nc3ccc(Br)cc3F)ncnc2cc1OCC1CN(C)CCO1 (centres undefined)
> 7.30 | CCN1CCC[C@H]1c1noc(COc2cc3ncnc(Nc4ccc(Cl)c(Cl)c4)c3cc2OC)n1
> 7.30 | COc1cc2c(Nc3ccc(Cl)c(Cl)c3)ncnc2cc1OCc1nc(CN2CCN(C)CC2)cs1
> 7.30 | COc1cc2c(Nc3ccc(Cl)c(Cl)c3)ncnc2cc1OCC1CN(CCCCCCO)CCO1 (centres undefined)
> 7.30 | COc1cc2c(Nc3ccc(Cl)c(Cl)c3)ncnc2cc1OCC1CN(C(=NC#N)N2CCCCC2)CCO1 (centres undefined)
> 7.30 | CCOc1cc2c(Nc3ccc(Cl)c(Cl)c3)ncnc2cc1OCC1CNCCO1 (centres undefined)
> 7.30 | COc1cc2c(Nc3ccc(N4CCN(C)CC4)c(F)c3)ncnc2cc1O[C@H]1CO[C@@H]2[C@H]1OC[C@@H]2F
> 7.30 | CCOC(=O)C(C)N1CCOC(COc2cc3ncnc(Nc4ccc(Cl)c(Cl)c4)c3cc2OC)C1 (centres undefined)
> 7.30 | CCN1CCC(c2nc(COc3cc4ncnc(Nc5ccc(Cl)c(Cl)c5)c4cc3OC)cs2)CC1
> 7.30 | COc1cc2c(Nc3ccc(Br)c(Cl)c3)ncnc2cc1O[C@H]1CO[C@@H]2[C@H]1OC[C@@H]2O
> 7.30 | CCN1CCN(CC)C(COc2cc3ncnc(Nc4ccc(Cl)c(Cl)c4)c3cc2OC)C1 (centres undefined)

pIC50 | SMILES
> 7.30 | COc1cc2c(Nc3ccc(Br)cc3Br)ncnc2cc1OCC1CN(C)CCO1 (centres undefined)
> 7.30 | COc1cc2c(Nc3ccc(Br)c(Cl)c3Cl)ncnc2cc1OC[C@@H]1CN2CCC[C@H]2CO1
6.00 to 7.30 | COc1cc2c(Nc3ccc(Cl)c(Cl)c3)ncnc2cc1OCc1cc(Br)cc(Br)c1
> 7.30 | CCS(=O)(=O)N1CCOC(COc2cc3ncnc(Nc4ccc(Cl)c(Cl)c4)c3cc2OC)C1 (centres undefined)
> 7.30 | COc1cc2c(Nc3ccc(Cl)c(Cl)c3)ncnc2cc1OCc1nc(-c2ccc(N3CCCC3)cc2)cs1
> 7.30 | COc1cc2c(Nc3ccc(Cl)c(Cl)c3)ncnc2cc1OCC1CN(CC2CCCCC2)CCO1 (centres undefined)
> 7.30 | COc1cc2c(Nc3cc(F)cc(F)c3)ncnc2cc1O[C@@H]1CO[C@@H]2[C@H]1OC[C@H]2F
> 7.30 | COc1cc2c(Nc3ccc(Br)c(Cl)c3)ncnc2cc1O[C@@H]1CCOC1
> 7.30 | COc1cc2c(Nc3ccc(Cl)c(C)c3)ncnc2cc1OCC1CN(C)CCO1 (centres undefined)
> 7.30 | COc1cc2c(Nc3ccc(Cl)c(Cl)c3)ncnc2cc1OCc1noc(OCc2ccccc2)n1
> 7.30 | CCCCCC(=O)N1CCOC(COc2cc3ncnc(Nc4ccc(Cl)c(Cl)c4)c3cc2OC)C1 (centres undefined)
> 7.30 | COc1cc2c(Nc3ccc(F)c(Cl)c3F)ncnc2cc1OCC1CN(C)CCO1 (centres undefined)
> 7.30 | CCN(CC)[C@H]1CO[C@@H]2[C@H]1OC[C@@H]2Oc1cc2ncnc(Nc3ccc(Br)c(Cl)c3)c2cc1OC
6.00 to 7.30 | COc1cc2c(Nc3ccc(Cl)c(Cl)c3)ncnc2cc1OCc1csc(-c2ccc(Cl)cc2)n1
> 7.30 | COc1cc2c(Nc3ccc(Cl)c(Cl)c3)ncnc2cc1OCC1CN(C)C(C)(C)C(=O)O1 (centres undefined)
> 7.30 | CCN1CCc2nc(COc3cc4ncnc(Nc5ccc(Cl)c(Cl)c5)c4cc3OC)sc2C1
> 7.30 | CCCC(C)C(=O)N1CCOC(COc2cc3ncnc(Nc4ccc(Cl)c(Cl)c4)c3cc2OC)C1 (centres undefined)
> 7.30 | COc1cc2c(Nc3ccccc3Cl)ncnc2cc1O[C@@H]1CO[C@@H]2[C@H]1OC[C@H]2F
> 7.30 | COc1cc2c(Nc3cc(F)c(F)cc3F)ncnc2cc1O[C@@H]1CO[C@@H]2[C@H]1OC[C@H]2F
> 7.30 | CCCCCN1CCOC(COc2cc3ncnc(Nc4ccc(Cl)c(Cl)c4)c3cc2OC)C1 (centres undefined)
> 7.30 | COc1cc2c(Nc3ccc(Cl)c(Cl)c3)ncnc2cc1OCC1CN(S(=O)(=O)c2ccc(F)cc2)CCO1 (centres undefined)
> 7.30 | COc1cc2c(Nc3ccc(Cl)c(Cl)c3F)ncnc2cc1OC[C@@H]1CN2CCCC[C@H]2C(=O)N1
> 7.30 | COc1cc2c(Nc3ccc(Cl)cc3Cl)ncnc2cc1O[C@@H]1CO[C@@H]2[C@H]1OC[C@H]2F
> 7.30 | COc1cc2c(Nc3ccc(Br)c(Cl)c3F)ncnc2cc1OCC1CO[C@@H]2[C@@H](OC)CO[C@H]12 (some centres undefined)

SMILES | pIC50
COc1cc2c(Nc3ccc(Cl)c(Cl)c3)ncnc2cc1OCCNC1CC2CCC(C1)N2C (centres undefined) | > 7.30
